Tested on: Osteoclast precursor cells
Experiment: Osteoclast differentiation assay (acid phosphatase readout)
Assay type: cell-based
Details: RANKL and M-CSF
Method: Further, an osteoclast differentiation assay is used to assess the efficacy of Fms inhibitors for treating bone disease such as osteoarthritis. On day 0, Osteoclast Medium BulletKit (Lonza catalog #PT-8001, containing Media, FBS, L-Glutamine, PenStrep, RANKL, and M-CSF) media is thawed and the FBS, L-glutamine and PenStrep from the kit is added to 100 mL of Osteoclast Precursor Basal medium to provide the Osteoclast Precursor Growth Medium (OPGM). This is warmed to 37° C. Osteoclast precursor cells (Lonza catalog #2T-110) frozen in cryovial are warmed to 37° C. and transferred to a 50 mL conical tube. The cryovial is rinsed with OPGM and added dropwise to the conical tube of cells with swirling, then the volume is adjusted to 20-30 mL with addition of OPGM. The cells are centrifuged at 200×g for 15 minutes at room temperature and all but approximately 3 mL of supernatant is removed to a new conical tube. The cells are suspended in the remaining supernatant and the volume is adjusted to 10-15 mL with OPGM added dropwise with swirling. […] The cells are resuspended in the remaining supernatant, counted, and the volume adjusted with an appropriate amount of OPGM to provide approximately 1×10^5 cells/mL. […] The absorbance of each well is read at 405 nm on Safire plate reader. The absorbance reading is plotted vs. concentration to provide the IC50 for each compound.

In the case of `Clc1cnc2[nH]cc(Cc3ccc(NCc4ccc(Cl)nc4)nc3)c2c1` [Compound P-2003], the IC50 is reported as under 100 nM.
